Type in all cases: in vivo, SD rats (spontaneously hyperglycemic strain)
One data set deals with hyperglycemic rats. In words: ERG in hyperglycemic rat diabetic retinopathy model. An excerpt: Hyperglycemic Rat Diabetic Retinopathy Model—A spontaneously hyperglycemic strain of SD rats, which developed clinical signs of diabetic retinopathy within 4 weeks of birth were identified and isolated within the Vernon Jansen Animal Research Unit, Faculty of Medical and Health Sciences at the University of Auckland. The identification of these rats presenting with hyperglycemia and microaneurysms provided an opportunity to treat a complex, chronic disease model and assess the treatment effect based upon objective, measurable endpoints, despite lacking precise information on the etiology of the disease. Inbreeding was carried out over three generations and eyes were screened for abnormalities between 4-8 weeks of age. Additional information about these rats is presented as supplementary information. Glucose levels were tested in non-fasting rats (Lee J J, Yi H Y, Yang J W, Shin J S, Kwon J H, Kim C W. Characterization of streptozotocin-induced diabetic rats and pharmacodynamics of insulin formulations. Biosci Biotechnol Biochem. 2003; 67:2396-401) using a Freestyle Optium Glucometer (Abbott Laboratories Ltd., UK) and Freestyle Optium glucose strips.
(§1) Ten rats per group were the selected (10 normal SD and 10 hyperglycemic) grown to 5 weeks of age and assessed using OCT and ERG. The hyperglycemic rat group was then split into two subgroups of five, with one subgroup fed tonabersat once daily for 14 days from weeks 5 to 7 at a low dose level of 0.28 mg/kg in 0.5 g peanut butter, with the other subgroup fed 0.5 g peanut butter only. All animals were assessed again using ERG and OCT at 8 weeks of age before euthanizing animals and removing the eyes for immunohistochemical analysis. Data groups were randomized prior to the statistical comparison. In summary, normal SD and hyperglycemic rats were analyzed with OCT and ERG at 5 weeks of age; the hyperglycemic rats were then split into two groups and fed the vehicle or tonabersat for 14 days during weeks 6 and 7 of age. At week 8, animals were again assessed with ERG and OCT and tissues collected for immunohistochemical analysis. Four tonabersat-treated rats were, however, left until 3 months of age before final ERG and OCT and tissue collection.
Electroretinogram Recording—The procedure was performed as described previously. Vessey K A, Wilkinson-Berka J L, Fletcher E L. Characterization of retinal function and glial cell response in a mouse model of oxygen-induced retinopathy. J Comp Neurol. 2011; 519:506-27. Essentially, SD rats were dark-adapted overnight for 12-14 hours before the ERG recording. For the dry AMD, the ERG baseline was recorded for all groups before light damage and at time points after the light damage insult (24 hours, 1 week, 2 weeks and 3 months post intense light). For the DR model, ERGs were recorded at 5 weeks of age to compare normal SD and hyperglycemic rat retinal function. Tonabersat treated and vehicle control hyperglycemic rats were assessed again at 8 weeks of age. After dark adaptation, rats were anaesthetized by an intraperitoneal injection of a combination of ketamine (75 mg/kg, Parnell Technologies, New Zealand) and domitor (0.5 mg/kg, Pfizer, New Zealand). A dim red light generated by a light-emitting diode (λmax=650 nm) was used during manipulations of dark-adapted animals. The corneas were maintained hydrated with 1% carboxymethylcellulose sodium (Celluvisc, Allergan, USA) during ERG recording. Right and left eye ERGs were recorded using gold ring electrodes (Roland Consult Stasche & Finger GmbH, Germany). A U-shaped active electrode was kept in contact with the center of the cornea. […] Normal body temperature was maintained to avoid temperature-driven ERG amplitude fluctuation by placing animals on a 37° C. heated pad. Full-field ERG responses were elicited by a twin-flash ([…] stimulus interval) generated from a photographic flash unit (Nikon SB900 flash, Japan), via a Ganzfeld sphere. […]

The nature of data set [1]: Body weight of hyperglycemic rats. As to conditions: 0.28 mg/kg once daily 14 days; week 8. An excerpt: Hyperglycemic Rat Diabetic Retinopathy Model—A spontaneously hyperglycemic strain of SD rats, which developed clinical signs of diabetic retinopathy within 4 weeks of birth were identified and isolated within the Vernon Jansen Animal Research Unit, Faculty of Medical and Health Sciences at the University of Auckland. The identification of these rats presenting with hyperglycemia and microaneurysms provided an opportunity to treat a complex, chronic disease model and assess the treatment effect based upon objective, measurable endpoints, despite lacking precise information on the etiology of the disease. Inbreeding was carried out over three generations and eyes were screened for abnormalities between 4-8 weeks of age. […]
Ten rats per group were the selected (10 normal SD and 10 hyperglycemic) grown to 5 weeks of age and assessed using OCT and ERG. […] All animals were assessed again using ERG and OCT at 8 weeks of age before euthanizing animals and removing the eyes for immunohistochemical analysis. […] In summary, normal SD and hyperglycemic rats were analyzed with OCT and ERG at 5 weeks of age; the hyperglycemic rats were then split into two groups and fed the vehicle or tonabersat for 14 days during weeks 6 and 7 of age. At week 8, animals were again assessed with ERG and OCT and tissues collected for immunohistochemical analysis. […]

A further data set relates to GFAP, Connexin43, Iba-1. In words: Immunohistochemical labelling of GFAP, Iba-1 and Connexin43 in hyperglycemic rat retina. The note with it: dosed daily for 14 days, 8 weeks of age. The method, then:
as §1
Tissue Collection and Processing—At the end of the final OCT recording rats was deeply anesthetized using a combination of ketamine (75 mg/kg, Parnell Technologies, New Zealand) and domitor (0.5 mg/kg, Pfizer, New Zealand). Animals were perfused transcardially with saline for 2-3 min followed by 30 min perfusion with 4% paraformaldehyde in a 0.1 M phosphate buffer, pH 7.4 (PB). Eyes were dissected from the orbit and the eyecups further immersion fixed in 4% paraformaldehyde, 30 min before washing in PB. Tissues were then cryo-protected by taking them though 10% and 20% sucrose/PB solutions at room temperature for 30 min each, before soaking in 30% sucrose/PB at 4° C. overnight. The tissue was then embedded in optimum cutting temperature compound (Sakura Finetek, Torrance, USA) for cryosectioning (16 μm section thickness) in the vertical plane using a Leica CM3050 S cryostat (Leica, Germany). Sections were collected on Superfrost Plus slides (Labserv, New Zealand) for immunohistochemical labelling. For the DR animals we collected spleen, pancreas, liver, heart and kidneys from randomly selected vehicle-injected animals (see supplementary information).
Immunohistochemical Labelling of Tissue Sections—Frozen tissue sections were air-dried at room temperature for 10-15 min and washed with 0.1 M PB. Sections were encircled with a PAP pen (Invitrogen, New Zealand) to form incubation wells and blocked with 6% normal goat serum or donkey serum (Invitrogen, USA), 1% bovine serum albumin (BSA) and 0.5% Triton X-100 in 0.1 M PB for 1 hour at room temperature. […]

[2] abbreviates: 0.28 mg/kg once daily 14 days, week 8, p<0.001.
Setting [3] is: 0.28 mg/kg once daily 14 days, week 8, p<0.01.
Setting [4] is: significantly less than untreated, p<0.001.

Here are results for one compound from US20220401408A1, “COMPOSITIONS AND METHODS FOR RESCUING RETINAL AND CHOROIDAL STRUCTURE AND FUNCTION” (AUCKLAND UNISERVICES LIMITED, priority 2019, published 2022).

On to `CC(=O)c1ccc2c(c1)[C@H](NC(=O)c1ccc(F)c(Cl)c1)[C@H](O)C(C)(C)O2` [tonabersat, N-[(3S,4S)-6-acetyl-3-hydroxy-2,2-dimethyl-3,4-dihydrochromen-4-yl]-3-chloro-4-fluorobenzamide], for which the mixed ERG a-wave, maximum intensity in the data set on hyperglycemic rats (0.28 mg/kg once daily 14 days, 8 weeks, untreated −370 V) was -630 µV. The implicit times entry in the data set on hyperglycemic rats (0.28 mg/kg once daily 14 days, week 8) was “not different”. Besides, the mixed b-wave signals entry in the data set on hyperglycemic rats (0.28 mg/kg once daily 14 days, week 8, all intensities, p<0.001) is reported as “significantly recovered”. Besides, the “mixed ERG a-wave vs untreated” value in the data set on hyperglycemic rats (0.28 mg/kg once daily 14 days, week 8, intensities 0.1-2.1 cd·s/m2, p<0.001) is “significantly higher”. Also, in the data set on hyperglycemic rats (setting [2]), the “rod PII amplitude” value was “significantly recovered” and the “rod PIII amplitude” value is reported as “significantly recovered”. Besides, in the data set on hyperglycemic rats (setting [3]), the “cone PII amplitude” value is on record as “significantly recovered” and the “summed OPs amplitude” value is listed as “significantly recovered”. In addition, the mixed b-wave, maximum intensity in the data set with hyperglycemic rats (0.28 mg/kg once daily 14 days, week 8, untreated controls 400 V) amounted to 700 µV. The “retinal function compared to vehicle hyperglycemic rats” value in the data set on hyperglycemic rats (0.28 mg/kg oral once daily 14 days (weeks 5 to 7), week 8) is listed as “significantly recovered”. In addition, the “body weight, treated vs untreated hyperglycemic rats” value in data set [1] is “no difference”. In the data set on GFAP, Connexin43, Iba-1, the “inflammation (labeling for GFAP, Iba-1, Connexin43)” value is listed as “reduced inflammation”. Besides, in the data set with GFAP, Connexin43, Iba-1 (setting [4]), the “Connexin43 labelling, quantification” value is listed as “recovering to normal”; the “GFAP labelling, quantification” value is on record as “recovering to normal”; the “Iba-1 labelling, quantification” value is reported as “recovering to normal”.
